According to ChEMBL document CHEMBL1201861, “Genomics of Drug Sensitity in Cancer screening data, Wellcome Trust Sanger Institute”:

How the values were obtained:
Assay in all cases: cells
A673 = type: functional, cell-based, Homo sapiens;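 further: growth inhibition of human A673 cells, read out through a cell viability assay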
Description: SANGER: Inhibition of human A673 cell growth in a cell viability assay.

MKN-28 = type: functional, cell-based, Homo sapiens;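 further: cell viability assay read-out, IC50 reflects suppression of growth of human MKN-28 cells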
Description: SANGER: Inhibition of human MKN28 cell growth in a cell viability assay.

NCI-H460 = type: functional, cell-based, Homo sapiens;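 further: cell viability assay scoring growth inhibition of human NCI-H460 cells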
Description: SANGER: Inhibition of human NCI-H460 cell growth in a cell viability assay.

M059J = type: functional, cell-based, Homo sapiens;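 further: growth inhibition of M059J cells, read out with a cell viability assay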
Description: SANGER: Inhibition of human M059J cell growth in a cell viability assay.

EPLC-272H = type: functional, cell-based, Homo sapiens
Description: SANGER: Inhibition of human EPLC-272H cell growth in a cell viability assay.

CAL-12T = type: functional, cell-based, Homo sapiens;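 further: growth inhibition of human CAL-12T cells, read out with a cell viability assay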
Description: SANGER: Inhibition of human CAL-12T cell growth in a cell viability assay.

GCT = type: functional, cell-based, Homo sapiens;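 further: GCT cell line proliferation inhibition, read out with a cell viability assay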
Description: SANGER: Inhibition of human GCT cell growth in a cell viability assay.

PANC-03-27 = type: functional, cell-based, Homo sapiens
Description: SANGER: Inhibition of human PANC-03-27 cell growth in a cell viability assay.

CAKI-1 = type: functional, cell-based, Homo sapiens;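 further: growth inhibition of CAKI-1 cells, measured by a cell viability assay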
Description: SANGER: Inhibition of human CAKI-1 cell growth in a cell viability assay.

NCI-H1793 = type: functional, cell-based, Homo sapiens;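 further: cell growth inhibition, read out by a cell viability assay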
Description: SANGER: Inhibition of human NCI-H1793 cell growth in a cell viability assay.

BT-20 = type: functional, cell-based, Homo sapiens;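 further: cell viability assay measuring suppression of growth in human BT-20 cells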
Description: SANGER: Inhibition of human BT-20 cell growth in a cell viability assay.

NCI-H650 = type: functional, cell-based, Homo sapiens;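 further: growth inhibition of NCI-H650 cells, read out by a viability assay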
Description: SANGER: Inhibition of human NCI-H650 cell growth in a cell viability assay.

C3A = type: functional, cell-based, Homo sapiens;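 further: growth inhibition of C3A human cells, quantified with a cell viability readout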
Description: SANGER: Inhibition of human C3A cell growth in a cell viability assay.

OVCAR-5 = type: functional, cell-based, Homo sapiens;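 further: growth inhibition of human OVCAR-5 cells, read out with a cell viability assay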
Description: SANGER: Inhibition of human OVCAR-5 cell growth in a cell viability assay.

SW626 = type: functional, cell-based, Homo sapiens;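 further: growth inhibition of SW626 cells, measured with a cell viability assay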
Description: SANGER: Inhibition of human SW626 cell growth in a cell viability assay.

SK-N-AS = type: functional, cell-based, Homo sapiens;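 further: growth inhibition of human SK-N-AS cells, measured with a cell viability assay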
Description: SANGER: Inhibition of human SK-N-AS cell growth in a cell viability assay.

U-251 = type: functional, cell-based, Homo sapiens;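 further: growth inhibition of human U-251 cells, read out through a cell viability assay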
Description: SANGER: Inhibition of human U251 cell growth in a cell viability assay.

DBTRG-05MG = type: functional, cell-based, Homo sapiens;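 further: cell viability assay measuring growth inhibition of human DBTRG-05MG cells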
Description: SANGER: Inhibition of human DBTRG-05MG cell growth in a cell viability assay.

NCI-H2030 = type: functional, cell-based, Homo sapiens;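 further: growth inhibition of human NCI-H2030 cells, read out by a cell viability assay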
Description: SANGER: Inhibition of human NCI-H2030 cell growth in a cell viability assay.

EW-22 = type: functional, cell-based, Homo sapiens;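 further: growth inhibition of the EW-22 cell line, measured with a cell viability readout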
Description: SANGER: Inhibition of human EW-22 cell growth in a cell viability assay.

SW780 = type: functional, cell-based, Homo sapiens;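 further: growth inhibition of the cells, read out with a cell viability assay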
Description: SANGER: Inhibition of human SW780 cell growth in a cell viability assay.

U2OS = type: functional, cell-based, Homo sapiens, U-2-OS;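 further: growth inhibition of human U-2-OS cells, determined with a cell viability assay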
Description: SANGER: Inhibition of human U-2-OS cell growth in a cell viability assay.

LK-2 = type: functional, cell-based, Homo sapiens;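 further: growth inhibition of LK-2 cells, read out with a viability assay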
Description: SANGER: Inhibition of human LK-2 cell growth in a cell viability assay.

SW13 = type: functional, cell-based, Homo sapiens;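 further: IC50 is inhibition of SW13 cell growth, read out with a cell viability assay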
Description: SANGER: Inhibition of human SW13 cell growth in a cell viability assay.

SJRH30 = type: functional, cell-based, Homo sapiens;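 further: growth inhibition of human SJRH30 cells, read out with a cell viability assay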
Description: SANGER: Inhibition of human SJRH30 cell growth in a cell viability assay.

SKG-IIIa = type: functional, cell-based, Homo sapiens;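 further: cell growth inhibition, read out with a cell viability assay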
Description: SANGER: Inhibition of human SKG-IIIa cell growth in a cell viability assay.

T-24 = type: functional, cell-based, Homo sapiens;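 further: growth inhibition of T-24 cells, read out with a cell viability assay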
Description: SANGER: Inhibition of human T-24 cell growth in a cell viability assay.

KYSE-70 cell line = type: functional, cell-based, Homo sapiens;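 further: cell viability assay read-out, with IC50 expressing suppression of KYSE-70 cell growth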
Description: SANGER: Inhibition of human KYSE-70 cell growth in a cell viability assay.

SW1088 = type: functional, cell-based, Homo sapiens;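 further: growth inhibition of human SW1088 cells, read out by a cell viability assay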
Description: SANGER: Inhibition of human SW1088 cell growth in a cell viability assay.

Daoy = type: functional, cell-based, Homo sapiens;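 further: daoy cell growth inhibition, read out as cell viability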
Description: SANGER: Inhibition of human Daoy cell growth in a cell viability assay.

AU565 = type: functional, cell-based, Homo sapiens;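 further: cell viability assay measuring growth inhibition of human AU565 cells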
Description: SANGER: Inhibition of human AU565 cell growth in a cell viability assay.

SCC-25 = type: functional, cell-based, Homo sapiens;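 further: growth inhibition of SCC-25 cells, measured with a cell viability assay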
Description: SANGER: Inhibition of human SCC-25 cell growth in a cell viability assay.

LU-99A = type: functional, cell-based, Homo sapiens;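 further: growth inhibition of LU-99A cells, read out with a cell viability assay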
Description: SANGER: Inhibition of human LU-99A cell growth in a cell viability assay.

RD = type: functional, cell-based, Homo sapiens
Description: SANGER: Inhibition of human RD cell growth in a cell viability assay.

Molecule: CS(=O)(=O)c1ccc(C(=O)Nc2ccc(Cl)c(-c3ccccn3)c2)c(Cl)c1 [VISMODEGIB]
- IC50 (A673; Homo sapiens, A673): > 10 µM
- IC50 (MKN-28; Homo sapiens, MKN-28): > 10 µM
- IC50 (NCI-H460; Homo sapiens, NCI-H460): > 10 µM
- IC50 (M059J; Homo sapiens, M059J): > 10 µM
- IC50 (EPLC-272H; Homo sapiens, EPLC-272H): > 10 µM
- IC50 (CAL-12T; Homo sapiens, CAL-12T): > 10 µM
- IC50 (GCT; Homo sapiens, GCT): > 10 µM
- IC50 (PANC-03-27; Homo sapiens, PANC-03-27): > 10 µM
- IC50 (CAKI-1; Homo sapiens, CAKI-1): > 10 µM
- IC50 (NCI-H1793; Homo sapiens, NCI-H1793): > 10 µM
- IC50 (BT-20; Homo sapiens, BT-20): > 10 µM
- IC50 (NCI-H650; Homo sapiens, NCI-H650): > 10 µM
- IC50 (C3A; Homo sapiens, C3A): > 10 µM
- IC50 (OVCAR-5; Homo sapiens, OVCAR-5): > 10 µM
- IC50 (SW626; Homo sapiens, SW626): > 10 µM
- IC50 (SK-N-AS; Homo sapiens, SK-N-AS): > 10 µM
- IC50 (U-251; Homo sapiens, U-251): > 10 µM
- IC50 (DBTRG-05MG; Homo sapiens, DBTRG-05MG): > 10 µM
- IC50 (NCI-H2030; Homo sapiens, NCI-H2030): > 10 µM
- IC50 (EW-22; Homo sapiens, EW-22): > 10 µM
- IC50 (SW780; Homo sapiens, SW780): > 10 µM
- IC50 (U2OS; Homo sapiens, U2OS): > 10 µM
- IC50 (LK-2; Homo sapiens, LK-2): > 10 µM
- IC50 (SW13; Homo sapiens, SW13): > 10 µM
- IC50 (SJRH30; Homo sapiens, SJRH30): > 10 µM
- IC50 (SKG-IIIa; Homo sapiens, SKG-IIIa): > 10 µM
- IC50 (T-24; Homo sapiens, T-24): > 10 µM
- IC50 (KYSE-70 cell line; Homo sapiens, KYSE-70): > 10 µM
- IC50 (SW1088; Homo sapiens, SW1088): > 10 µM
- IC50 (Daoy; Homo sapiens, Daoy): > 10 µM
- IC50 (AU565; Homo sapiens, AU565): > 10 µM
- IC50 (SCC-25; Homo sapiens, SCC-25): > 10 µM
- IC50 (LU-99A; Homo sapiens, LU-99A): > 10 µM
- IC50 (RD; Homo sapiens, RD): > 10 µM

Molecule: CISPLATIN
- IC50 (A673; a673): 2.17 µM
- IC50 (MKN-28; mkn-28): 31.4 µM
- IC50 (NCI-H460; nci-h460): 345 µM
- IC50 (M059J; m059j): 10.4 µM
- IC50 (EPLC-272H; eplc-272h): 13 µM
- IC50 (CAL-12T; cal-12t): 625 µM
- IC50 (GCT; gct): 6.12 µM
- IC50 (PANC-03-27; panc-03-27): 38.3 µM
- IC50 (CAKI-1; caki-1): 7.27 µM
- IC50 (NCI-H1793; nci-h1793): 19.1 µM
- IC50 (BT-20; bt-20): 213 µM
- IC50 (NCI-H650; nci-h650): 29.9 µM
- IC50 (C3A; c3a): 407 µM
- IC50 (OVCAR-5; ovcar-5): 4.02 µM
- IC50 (SW626; sw626): 33.1 µM
- IC50 (SK-N-AS; sk-n-as): 38 µM
- IC50 (U-251; u-251): 11.6 µM
- IC50 (DBTRG-05MG; dbtrg-05mg): 15.9 µM
- IC50 (NCI-H2030; nci-h2030): 11.9 µM
- IC50 (EW-22; ew-22): 2.08 µM
- IC50 (SW780; sw780): 14 µM
- IC50 (U2OS; u-2-os): 13.4 µM
- IC50 (LK-2; lk-2): 44.3 µM
- IC50 (SW13; sw13): 14.3 µM
- IC50 (SJRH30; sjrh30): 98.3 µM
- IC50 (SKG-IIIa; skg-iiia): 7.05 µM
- IC50 (T-24; t-24): 5.56 µM
- IC50 (KYSE-70 cell line; kyse-70): 48.7 µM
- IC50 (SW1088; sw1088): 9.7 µM
- IC50 (Daoy; daoy): 1.51 µM
- IC50 (AU565; au565): 52.5 µM
- IC50 (SCC-25; scc-25): 64.6 µM
- IC50 (LU-99A; lu-99a): 4.29 µM
- IC50 (RD; rd): 14.6 µM
